Legend:
SYK = molecular target: T1, SYK (Homo sapiens, UniProt P43405); assay: KINOMEscan competition binding screen, SYK; conditions: for remaining binding at 10 µM: read-out: % Ctrl @ 10 μM
T1 construct: purchased Eurofins DiscoverX Corporation
Method: (§1) The KINOMEscan™ screening platform (Eurofins DiscoverX Corporation, San Diego, USA) was performed using an active site-directed competition binding assay to quantitatively measure interactions between BK40143, BK40197, BK40195, and BK40196 and more than 450 human kinases and disease relevant mutant variants. […] Screening “hits” were identified by measuring the amount of kinase captured in test (BK40143, BK40197, BK40195, and BK40196) versus control samples by using a quantitative and ultra-sensitive qPCR method that detects the associated DNA label. BK40143, BK40197, BK40195, and BK40196 were screened at 10 μM concentration, and results for primary screen binding interactions were reported as ‘% Ctrl’ (POC), where lower numbers indicate stronger hits and calculated as follows:
(§2) [formula] • test compound=BK40143 or BK40197 or BK40195 or BK40196 • negative control=DMSO (100% Ctrl) • positive control=control compound (0% Ctrl)
(§3) Based on screening data of profiled compounds, a proportional relationship between primary screening results and corresponding compound/target affinities can be described as binding constants (Kd values) for the indicated ranges of percent of control (PoC) values, with tighter binding (higher affinity) interactions associated with lower PoC values, and weaker binding (lower affinity) associated with higher PoC values. Briefly, kinase-tagged T7 phage strains were grown in parallel in 24-well blocks in an E. coli host derived from the BL21 strain. E. coli were grown to log-phase and infected with T7 phage from a frozen stock (multiplicity of infection=0.4) and incubated with shaking at 32° C. until lysis (90-150 minutes). The lysates were centrifuged (6,000×g) and filtered ([…]) to remove cell debris. The remaining kinases were produced in HEK-293 cells and subsequently tagged with DNA for qPCR detection. Streptavidin-coated magnetic beads were treated with biotinylated small molecule ligands for 30 minutes at room temperature to generate affinity resins for kinase assays. The liganded beads were blocked with excess biotin and washed with blocking buffer (SeaBlock (Pierce), 1% BSA, 0.05% Tween 20, 1 mM DTT) to remove unbound ligand and to reduce non-specific phage binding. Binding reactions were assembled by combining kinases, liganded affinity beads, and test compounds in 1× binding buffer (20% SeaBlock, 0.17×PBS, 0.05% Tween 20, 6 mM DTT). Test compounds were prepared as 100× stocks in 100% DMSO and directly diluted into the assay. All reactions were performed in polypropylene 384-well plates in a final volume of 0.02 ml. The assay plates were incubated at room temperature with shaking for 1 hour and the affinity beads were washed with wash buffer (1×PBS, 0.05% Tween 20). The beads were then re-suspended in elution buffer (1×PBS, 0.05% Tween 20, 0.5 μM non-biotinylated affinity ligand) and incubated at room temperature with shaking for 30 minutes. The kinase concentration in the eluates was measured by qPCR.

mast cell degranulation = assay: Compound 48/80-induced mast cell degranulation in wild type C57BL/6 mice, toluidine blue blood smear; format: in vivo; conditions: for mast cell degranulation 0.5-1.5 hours post-injection of C48/40: approximately two hours before I.P. injection of compound 48/80, toluidine blue blood smear; for effect on mast cell degranulation induced by C48/40: single I.P. injection two hours prior to compound 48/80 treatment, blood smear
Method: Wild type C57BL/6J mice were treated with C48/40 to induce mast cell activation. Compound 48/80 is a polymer produced by the condensation of N-methyl-p-methoxyphenethylamine with formaldehyde. It promotes histamine release, and in biochemical research, compound 48/80 (for example, Catalog No. C2313, Sigma-Aldrich, St. Louis, MO) is used to promote mast cell degranulation. Male and female, 4-8 months old wild type C57BL/6 mice were treated only once with intraperitoneal (I.P.) injection of DMSO (control) or DMSO for 2 hours followed by C48/40 for 0.5-1.5 hours. Mice were injected with DMSO approximately 2 hours prior to injection (IP) with 50 μg C48/40 to show degranulation of mast cells 0.5-1.5 hours post-injection of C48/40. Animals were also injected with 20 mg/kg BK40197, BK40195 or BK40196; or 10 mg/kg BK40143 approximately two hours before I.P. injection of C48/40 to show the effects of the drugs on mast cell degranulation approximately 0.5-1.5 hours post-injection of C48/40. Drugs and C48/40 were injected on the same site. n=6 per treatment. Blood was collected and a smear was prepared and stained with Toluidine blue to show mast cell morphology.

KIT = molecular target: T2, KIT (Homo sapiens, UniProt P10721); assay: KINOMEscan competition binding screen, KIT; conditions: for remaining binding at 10 µM: lower = stronger binding, read-out: % Ctrl @ 10 μM
T2 construct: purchased Eurofins DiscoverX Corporation
T2 sequence (P10721 26-976): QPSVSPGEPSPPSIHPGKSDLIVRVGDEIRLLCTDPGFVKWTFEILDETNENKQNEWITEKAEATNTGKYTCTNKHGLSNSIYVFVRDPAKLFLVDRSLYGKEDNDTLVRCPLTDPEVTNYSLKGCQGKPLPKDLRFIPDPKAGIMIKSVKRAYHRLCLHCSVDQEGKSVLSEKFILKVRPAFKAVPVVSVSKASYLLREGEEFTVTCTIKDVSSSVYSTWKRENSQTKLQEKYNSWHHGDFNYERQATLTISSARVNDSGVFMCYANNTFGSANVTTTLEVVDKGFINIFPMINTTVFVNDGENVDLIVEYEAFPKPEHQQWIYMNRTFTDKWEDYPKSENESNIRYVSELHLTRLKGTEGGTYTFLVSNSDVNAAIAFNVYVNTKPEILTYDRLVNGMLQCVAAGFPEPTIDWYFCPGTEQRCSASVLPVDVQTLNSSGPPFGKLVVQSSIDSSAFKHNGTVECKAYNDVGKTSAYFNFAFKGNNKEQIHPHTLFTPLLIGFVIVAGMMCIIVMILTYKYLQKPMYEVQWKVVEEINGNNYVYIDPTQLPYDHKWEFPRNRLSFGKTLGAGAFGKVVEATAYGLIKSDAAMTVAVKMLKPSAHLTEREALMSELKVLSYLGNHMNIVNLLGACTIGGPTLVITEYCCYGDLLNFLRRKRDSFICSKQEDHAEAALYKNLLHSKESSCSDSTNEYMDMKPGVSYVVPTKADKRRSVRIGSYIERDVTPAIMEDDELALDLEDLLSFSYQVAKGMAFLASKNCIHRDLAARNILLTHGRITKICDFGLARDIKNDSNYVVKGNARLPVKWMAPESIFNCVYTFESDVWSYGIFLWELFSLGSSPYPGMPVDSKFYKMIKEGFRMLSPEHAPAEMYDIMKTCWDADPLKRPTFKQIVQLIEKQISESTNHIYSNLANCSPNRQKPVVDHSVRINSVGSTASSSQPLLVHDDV
Method: as §1, §2, §3

KIT (D816H) = molecular target: T3, KIT (D816H) (Homo sapiens, UniProt P10721, D816H); assay: KINOMEscan competition binding screen, KIT (D816H); conditions: for remaining binding at 10 µM: read-out: % Ctrl @ 10 μM
T3 construct: purchased Eurofins DiscoverX Corporation
T3 sequence (P10721 26-976 D816H): as the sequence (P10721 26-976) above, with D791H counted along it
Method: as §1, §2, §3

KIT (V559D, V654A) = molecular target: T4, KIT (V559D, V654A) (Homo sapiens, UniProt P10721, V559D/V654A); assay: KINOMEscan competition binding screen, KIT (V559D, V654A); conditions: for remaining binding at 10 µM: read-out: % Ctrl @ 10 μM
T4 construct: purchased Eurofins DiscoverX Corporation
T4 sequence (P10721 26-976 V559D/V654A): as the sequence (P10721 26-976) above, with V534D, V629A counted along it
Method: as §1, §2, §3

DDR1 = molecular target: T5, DDR1 (Homo sapiens, UniProt Q08345); assay: KINASESEEKER competition binding assay, DDR1; conditions: minimum 8-point curve, duplicate
T5 construct: purchased Luceome Biotechnologies, LLC
T5 sequence (Q08345 19-913): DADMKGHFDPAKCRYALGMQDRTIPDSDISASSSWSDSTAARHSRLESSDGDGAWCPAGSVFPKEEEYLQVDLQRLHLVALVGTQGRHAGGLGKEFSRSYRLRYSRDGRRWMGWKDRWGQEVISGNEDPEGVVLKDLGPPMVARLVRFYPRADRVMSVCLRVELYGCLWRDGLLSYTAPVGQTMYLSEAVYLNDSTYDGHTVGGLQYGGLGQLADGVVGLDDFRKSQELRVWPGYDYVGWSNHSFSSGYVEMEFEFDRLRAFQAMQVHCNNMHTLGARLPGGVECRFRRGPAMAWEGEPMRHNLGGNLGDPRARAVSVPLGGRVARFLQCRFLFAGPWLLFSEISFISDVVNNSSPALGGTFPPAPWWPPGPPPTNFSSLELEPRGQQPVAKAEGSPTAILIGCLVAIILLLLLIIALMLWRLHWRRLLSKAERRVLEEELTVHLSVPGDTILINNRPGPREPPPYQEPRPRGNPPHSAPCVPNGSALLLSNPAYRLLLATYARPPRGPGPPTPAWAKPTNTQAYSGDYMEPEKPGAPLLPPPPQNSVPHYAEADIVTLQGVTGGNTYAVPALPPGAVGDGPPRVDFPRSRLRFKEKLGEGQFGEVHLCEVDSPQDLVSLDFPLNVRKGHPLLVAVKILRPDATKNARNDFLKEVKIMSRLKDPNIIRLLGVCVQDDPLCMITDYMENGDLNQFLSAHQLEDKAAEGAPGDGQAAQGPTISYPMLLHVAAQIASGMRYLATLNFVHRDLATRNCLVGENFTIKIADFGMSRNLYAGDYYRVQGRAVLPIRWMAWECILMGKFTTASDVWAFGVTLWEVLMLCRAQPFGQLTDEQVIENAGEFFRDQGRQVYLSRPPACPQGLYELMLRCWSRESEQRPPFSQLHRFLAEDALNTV
Method: Kinase assays were performed using KINASESEEKER™ (Luceome Biotechnologies, LLC; Tucson, AZ). KINASESEEKER™ is a homogeneous competition binding assay in which the displacement of an active site-dependent probe by an inhibitor is measured by a change in luminescence signal. Luminescence readout translates into a highly sensitive and robust assay with low background and minimal interference from test compounds. See J. Am. Chem. Soc., 2010, 132, 11727-11735.
Stock solutions of compounds were serially diluted in DMSO to make assay stocks. Prior to initiating IC50 determination, the test compounds were evaluated for false positives against split-luciferase. The compounds were screened against kinases at a minimum of 8 different concentrations in duplicate. For kinase assays, a 24 μL aliquot of lysate containing Cfluc-kinase and Fos-Nfluc was incubated for 2 hours with either 1 μL of DMSO (for no-inhibitor control) or compound solution in DMSO in presence of a kinase specific probe. 80 μL of luciferin assay reagent was added to each solution and luminescence was immediately measured on a luminometer.
The % Inhibition and % Activity Remaining was calculated using the following equation: […]
The % Activity Remaining was plotted against compound concentration and the IC50 was determined for each compound using a minimum 8-point curve.

inhibition at 10 µM (SYK)	remaining binding at 10 µM (SYK)	inhibition at 10 µM (KIT)	remaining binding at 10 µM (KIT)	inhibition at 10 µM (KIT (D816H))	remaining binding at 10 µM (KIT (D816H))	inhibition at 10 µM (KIT (V559D, V654A))	remaining binding at 10 µM (KIT (V559D, V654A))	IC50 (DDR1)	SMILES	mast cell degranulation 0.5-1.5 hours post-injection of C48/40 (mast cell degranulation; 10 mg/kg)	effect on mast cell degranulation induced by C48/40 (mast cell degranulation)	mast cell degranulation 0.5-1.5 hours post-injection of C48/40 (mast cell degranulation; 20 mg/kg)
94.5%	5.5%	100%	0%	54%	46%	82%	18%	7.05 ± 1.05 µM	Cc1cccc(-c2cc3nccc(Nc4ccccc4)c3s2)c1 [BK40143]	absence of mast cell degranulation	significantly prevented mast cell degranulation	–
88%	12%	100%	0%	93.9%	6.1%	97.5%	2.5%	2.2 ± 0.26 µM	COc1cccc(Nc2ccnc3cc(-c4cccc(C)c4)sc23)c1 [BK40195]	–	significantly prevented mast cell degranulation	absence of mast cell degranulation
97.7%	2.3%	100%	0%	94.1%	3.9%	98.7%	1.3%	1.07 ± 0.13 µM	Cc1cccc(-c2cc3nccc(Nc4cccc(O)c4)c3s2)c1 [BK40196]	absence of mast cell degranulation	significantly prevented mast cell degranulation	–

SMILES	inhibition at 10 µM (SYK)	remaining binding at 10 µM (SYK)	inhibition at 10 µM (KIT)	remaining binding at 10 µM (KIT)	inhibition at 10 µM (KIT (D816H))	remaining binding at 10 µM (KIT (D816H))	inhibition at 10 µM (KIT (V559D, V654A))	remaining binding at 10 µM (KIT (V559D, V654A))	IC50 (DDR1)	mast cell degranulation 0.5-1.5 hours post-injection of C48/40 (mast cell degranulation; 10 mg/kg)	effect on mast cell degranulation induced by C48/40 (mast cell degranulation)	mast cell degranulation 0.5-1.5 hours post-injection of C48/40 (mast cell degranulation; 20 mg/kg)
Cc1cccc(-c2cc3nccc(N4CCOCC4)c3s2)c1 [BK40197]	56%	44%	97.7%	0.3%	0%	100%	79%	21%	–	–	significantly prevented mast cell degranulation	absence of mast cell degranulation

— patent US20240423995A1, “C-KIT INHIBITORS AND USES FOR TREATING AND PREVENTING INFLAMMATORY CONDITIONS” (GEORGETOWN UNIVERSITY, priority 2023, published 2024)
